Test results as given in PubChem BioAssay AID1845195 (Molecular Pharmacology Branch, DTP, NCI, 2023).

Test system: 156681-154-R-J1 tumor spheroid viability
Experiment: Anticancer human tumor 156681-154-R-J1 patient-derived melanoma cell line growth inhibition
Details: spheroids with HUVEC and MSC; for IC50: curve of first compound; for viability, T/C: stronger effect = lower value
Summary of the method: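 Complex tumor spheroids combined malignant cells with endothelial cells and mesenchymal stem cells. DNA-damaging drugs and DNA repair inhibitors were tested alone and in combination, at half-log dilutions down from clinical Cmax (top 10 microM if Cmax unknown), 0.25% DMSO final.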

[1] = second compound 30 pM, first compound 0.0316 µM
[2] = second compound 30 pM, first compound 0.1 µM
[3] = second compound 30 pM, first compound 0.316 µM
[4] = second compound 30 pM, first compound 1 µM
[5] = second compound 30 pM, first compound 3.16 µM
[6] = second compound 30 pM, first compound 10 µM
[7] = second compound 94.9 pM, first compound 0.0316 µM
[8] = second compound 94.9 pM, first compound 0.1 µM
[9] = second compound 94.9 pM, first compound 0.316 µM
[10] = second compound 94.9 pM, first compound 1 µM
[11] = second compound 94.9 pM, first compound 3.16 µM
[12] = second compound 94.9 pM, first compound 10 µM
[13] = second compound 0.0003 µM, first compound 0.0316 µM
[14] = second compound 0.0003 µM, first compound 0.1 µM
[15] = second compound 0.0003 µM, first compound 0.316 µM
[16] = second compound 0.0003 µM, first compound 1 µM
[17] = second compound 0.0003 µM, first compound 3.16 µM
[18] = second compound 0.0003 µM, first compound 10 µM
[19] = second compound 0.000949 µM, first compound 0.0316 µM
[20] = second compound 0.000949 µM, first compound 0.1 µM
[21] = second compound 0.000949 µM, first compound 0.316 µM
[22] = second compound 0.000949 µM, first compound 1 µM
[23] = second compound 0.000949 µM, first compound 3.16 µM
[24] = second compound 0.000949 µM, first compound 10 µM
[25] = second compound 0.003 µM, first compound 0.0316 µM
[26] = second compound 0.003 µM, first compound 0.1 µM
[27] = second compound 0.003 µM, first compound 0.316 µM
[28] = second compound 0.003 µM, first compound 1 µM
[29] = second compound 0.003 µM, first compound 3.16 µM
[30] = second compound 0.003 µM, first compound 10 µM
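Further: spheroids exposed to compounds for 7 days before readout.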
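Wherever viability, T/C is given: percent of vehicle control viability where 100% = DMSO-treated spheroids.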

Row | SMILES | IC50 (second compound 30 pM) | IC50 (second compound 94.9 pM) | IC50 (second compound 0.0003 µM) | IC50 (second compound 0.000949 µM) | IC50 (second compound 0.003 µM) | viability, T/C [1] | viability, T/C [2] | viability, T/C [3] | viability, T/C [4] | viability, T/C [5] | viability, T/C [6] | viability, T/C [7] | viability, T/C [8] | viability, T/C [9] | viability, T/C [10] | viability, T/C [11] | viability, T/C [12] | viability, T/C [13] | viability, T/C [14] | viability, T/C [15] | also measured
1 | CC(C)n1c(=O)n(C)c2cnc3cc(F)c(-c4ccc(OCCCN5CCCCC5)nc4)cc3c21 + COc1cc2c(cc1O)CCNC21CSC2c3c(OC(C)=O)c(C)c4c(c3C(COC1=O)N1C(O)C3Cc5cc(C)c(OC)c(O)c5C(C21)N3C)OCO4 | > 10000 nM | > 10000 nM | 4750 nM | < 31.6 nM | < 31.6 nM | 101% | 120% | 87.2% | 105% | 104% | 90.3% | 106% | 91.1% | 103% | 95% | 108% | 73.5% | 66.9% | 63.5% | 61.7% | viability, T/C [16]: 65.7%; viability, T/C [17]: 85.7%; viability, T/C [18]: 15.9%; viability, T/C [19]: 6.13%; viability, T/C [20]: 2.85%; viability, T/C [21]: 4.29%; viability, T/C [22]: 3.82%; viability, T/C [23]: 4.41%; viability, T/C [24]: 0.77%; viability, T/C [25]: 0.23%; viability, T/C [26]: 0.23%; viability, T/C [27]: 0.24%; viability, T/C [28]: 0.22%; viability, T/C [29]: 0.18%; viability, T/C [30]: 0.24%
2 | CC1COCCN1c1cc(-c2ccnn2C)c2ccnc(-c3ccn[nH]3)c2n1 (stereo not given) + COc1cc2c(cc1O)CCNC21CSC2c3c(OC(C)=O)c(C)c4c(c3C(COC1=O)N1C(O)C3Cc5cc(C)c(OC)c(O)c5C(C21)N3C)OCO4 | 190 nM | 104 nM | < 31.6 nM | < 31.6 nM | < 31.6 nM | 96.4% | 62.2% | 39.9% | 29.9% | 27.3% | 22.6% | 78.7% | 50.7% | 33.6% | 30% | 22.1% | 21.9% | 49.5% | 41.1% | 23.9% | viability, T/C [16]: 20.6%; viability, T/C [17]: 21.3%; viability, T/C [18]: 20.1%; viability, T/C [19]: 6.51%; viability, T/C [20]: 2.7%; viability, T/C [21]: 4.04%; viability, T/C [22]: 3.29%; viability, T/C [23]: 0.29%; viability, T/C [24]: 0.17%; viability, T/C [25]: 0.23%; viability, T/C [26]: 0.22%; viability, T/C [27]: 0.16%; viability, T/C [28]: 0.13%; viability, T/C [29]: 0.14%; viability, T/C [30]: 0.25%
3 | COc1cc(C)[nH]c(=O)c1CN1CCc2c(Cl)cc(C(OC)C3COC3)c(Cl)c2C1=O (stereo not given) + COc1cc2c(cc1O)CCNC21CSC2c3c(OC(C)=O)c(C)c4c(c3C(COC1=O)N1C(O)C3Cc5cc(C)c(OC)c(O)c5C(C21)N3C)OCO4 | > 10000 nM | > 10000 nM | > 10000 nM | < 31.6 nM | < 31.6 nM | 88.8% | 112% | 94.9% | 93.3% | 92.6% | 120% | 90.9% | 98.3% | 106% | 116% | 106% | 98.1% | 77.9% | 82.3% | 87.7% | viability, T/C [16]: 80.1%; viability, T/C [17]: 73.3%; viability, T/C [18]: 67.2%; viability, T/C [19]: 6.81%; viability, T/C [20]: 5.99%; viability, T/C [21]: 5.88%; viability, T/C [22]: 5.47%; viability, T/C [23]: 3.42%; viability, T/C [24]: 2.93%; viability, T/C [25]: 0.33%; viability, T/C [26]: 0.34%; viability, T/C [27]: 0.33%; viability, T/C [28]: 0.41%; viability, T/C [29]: 0.38%; viability, T/C [30]: 0.48%
4 | COc1ccc([C@@H](O)c2cc(-c3ncnc4cc(N5CCOCC5)ccc34)c(F)cc2Cl)nn1 + COc1cc2c(cc1O)CCNC21CSC2c3c(OC(C)=O)c(C)c4c(c3C(COC1=O)N1C(O)C3Cc5cc(C)c(OC)c(O)c5C(C21)N3C)OCO4 | 9850 nM | 5110 nM | 427 nM | < 31.6 nM | < 31.6 nM | 118% | 107% | 88.5% | 84.7% | 64% | 49.5% | 108% | 92% | 89.9% | 69.5% | 55.9% | 41.5% | 83.5% | 79.5% | 54.1% | viability, T/C [16]: 32.4%; viability, T/C [17]: 4.29%; viability, T/C [18]: 0.28%; viability, T/C [19]: 5.23%; viability, T/C [20]: 2.87%; viability, T/C [21]: 0.68%; viability, T/C [22]: 0.1%; viability, T/C [23]: 0.07%; viability, T/C [24]: 0.18%; viability, T/C [25]: 0.27%; viability, T/C [26]: 0.3%; viability, T/C [27]: 0.22%; viability, T/C [28]: 0.18%; viability, T/C [29]: 0.16%; viability, T/C [30]: 0.28%
5 | Cc1cc(C)c(CNC(=O)c2cc(-c3ccc(CN4CCOCC4)cc3)cc3c2cnn3C2CCCC2)c(=O)[nH]1 + COc1cc2c(cc1O)CCNC21CSC2c3c(OC(C)=O)c(C)c4c(c3C(COC1=O)N1C(O)C3Cc5cc(C)c(OC)c(O)c5C(C21)N3C)OCO4 | > 10000 nM | > 10000 nM | > 10000 nM | < 31.6 nM | < 31.6 nM | 103% | 106% | 87.3% | 78.7% | 81.5% | 87.8% | 100% | 93.8% | 89% | 77.6% | 86.4% | 78.8% | 76.2% | 74.5% | 76.2% | viability, T/C [16]: 79.6%; viability, T/C [17]: 72.7%; viability, T/C [18]: 66.4%; viability, T/C [19]: 4.8%; viability, T/C [20]: 6.16%; viability, T/C [21]: 5.29%; viability, T/C [22]: 6.16%; viability, T/C [23]: 3.09%; viability, T/C [24]: 1.36%; viability, T/C [25]: 0.35%; viability, T/C [26]: 0.31%; viability, T/C [27]: 0.24%; viability, T/C [28]: 0.18%; viability, T/C [29]: 0.16%; viability, T/C [30]: 0.28%
6 | [2H]c1nc(C)nc([2H])c1-c1cc(NC[C@@H](C)c2cccc3c(C(=O)NC)ccnc23)ncn1 + COc1cc2c(cc1O)CCNC21CSC2c3c(OC(C)=O)c(C)c4c(c3C(COC1=O)N1C(O)C3Cc5cc(C)c(OC)c(O)c5C(C21)N3C)OCO4 | > 10000 nM | > 10000 nM | > 10000 nM | < 31.6 nM | < 31.6 nM | 91.3% | 96% | 109% | 95.1% | 92.3% | 94% | 89.6% | 111% | 105% | 85% | 90.4% | 76.8% | 79.7% | 86.6% | 80% | viability, T/C [16]: 75.3%; viability, T/C [17]: 81.9%; viability, T/C [18]: 62.4%; viability, T/C [19]: 6.44%; viability, T/C [20]: 4.98%; viability, T/C [21]: 4.24%; viability, T/C [22]: 4.33%; viability, T/C [23]: 3.62%; viability, T/C [24]: 3.23%; viability, T/C [25]: 0.26%; viability, T/C [26]: 0.3%; viability, T/C [27]: 0.22%; viability, T/C [28]: 0.17%; viability, T/C [29]: 0.17%; viability, T/C [30]: 0.28%
